Patent US6500830B1, “Conversion of modification D to modification A of doxazosin mesylate” (Knoll Aktiengesellschaft, priority 1998, dated 2002)
Where a name gives a salt, the structure may show the parent alone.

Assay: Dissolution of doxazosin mesylate in recrystallisation solvents
Format: physicochemical
Description: Although doxazosin is mostly used as monomesylate, the preparation of this salt has not to date been described. […] The product isolated after cooling the suspension contains chloroform, which is a solvent which is objectionable from the toxicological viewpoint and which can be removed only with difficulty and not without adverse effects on the active ingredient. […] In addition, the yield is poor and the material proves to be X-ray amorphous. […] Hot filtration of the suspension affords a small yield of the described ethanol modification A as residue on the filter. Cooling the filtrate results in only a moderate yield of impure A modification.

solubility in chloroform (75 times the amount of chloroform at the boiling point): does not dissolve
solubility in ethanol (350 times the amount of ethanol at the boiling point of the solvent): does not dissolve
solubility in water (water, compared with chloroform): dissolves better in water
Compound: COc1cc2nc(N3CCN(C(=O)C4COc5ccccc5O4)CC3)nc(N)c2cc1OC (stereo not drawn) [doxazosin mesylate, 4-amino-2-[4-(1,4-benzodioxane-2-carbonyl)piperazin-1-yl]-6,7-dimethoxyquinazoline]
